Values of other authors as cited in patent US20260116929A1, “ANTI-GRAM-NEGATIVE BACTERIAL COMPOUND” (Murata Manufacturing Co., Ltd., priority 2018, published 2026).

Tests used:
Settings in all cases: background statement
gram-positive bacteria = system: gram-positive bacteria
gram-negative bacteria = system: gram-negative bacteria
Vibrio parahaemolyticus = system: Vibrio parahaemolyticus

Molecule	antimicrobial activity against gram-positive bacteria (gram-positive bacteria)	antimicrobial activity against gram-negative bacteria (gram-negative bacteria)	antimicrobial activity against Vibrio parahaemolyticus (Vibrio parahaemolyticus)
Nisin	has an antimicrobial activity	not	no antimicrobial activity
entianin	have antimicrobial activities	not	
C=C1NC(=O)CC[C@@H](C(=O)O)NC(=O)[C@H](NC(=O)[C@H](CCCCN)NC(=O)[C@@H](N)Cc2c[nH]c3ccccc23)CSC[C@@H](C(=O)N[C@@H]2C(=O)N3CCC[C@H]3C(=O)NCC(=O)N[C@H](C(=O)N[C@H](C(=O)N[C@@H]3C(=O)NCC(=O)N[C@@H](C)C(=O)N[C@@H](CC(C)C)C(=O)N[C@@H](CCC(N)=O)C(=O)N/C(=C/C)C(=O)N[C@H](C(=O)N[C@@H](Cc4ccccc4)C(=O)N[C@@H](CC(C)C)C(=O)N[C@@H](CCC(N)=O)C(=O)N[C@@H]4C(=O)N[C@@H](CC(C)C)C(=O)N[C@H]5C(=O)N[C@@H](CSC4C)C(=O)NC(=O)[C@H](CC(N)=O)N[C@H](C(=O)N[C@@H](CCCCN)C(=O)N[C@H](C(=O)NC(=C)C(=O)N[C@@H](CCCCN)C(=O)O)[C@@H](C)CC)CSC5C)CSC3C)C(C)C)CSC2C)N[C@@H](CC(C)C)C(=O)NC1=O (stereo partly shown) [subtilin]	have antimicrobial activities	not	
